From US6602852B1, “Basic peptides and pharmaceutical compositions containing same” (NST NeuroSurvival Technologies, Ltd., priority 1998, dated 2003)

Assays:
[1] = tested on: Human Umbilical Vein Endothelial Cells (HUVEC); details: 500 ng of compound, 40 minutes
Protocol: HUVEC (CC-2517, obtained from Clonetics, Walkersville, Md.) were grown on tissue culture flasks in Endothelial cell medium (EGM-2 Bulletkit, CC 3162, Clonetics). Mid-confluent cultures were harvested using Trypsine/EDTA solution (CC-5012, Clonetics). The cells were rinsed twice with PBS containing 2% BSA and kept on ice. Samples of 10^6 cells were tested for binding.
The reactions were incubated at room temperature for 40 minutes and then 400 μl of TBS-BSA were added and cells were collected by centrifugation at 3000×g for 3 minutes. Cells were washed in 1 ml of TBS-BSA and centrifuged as before and then suspended in 100 μl of TBS-BSA containing streptavidin conjugated to flourescein (FITC) for detection of the bound biotinylated compound. […] Thereafter, 400 μl of TBS-BSA were added and cells were centrifuged and washed again with 1 ml of TBS-BSA as before and then resuspended in 400 μl of TSS and taken for FACS analysis.
The FACS analysis was performed on Beckton-Dickinson cell sorter, using lysis II software. Excitation was at 488 nm and emission for FITC detection was a 535 nm.
A dot plot analysis was done for each treatment.

[2] = tested on: clotting induced by negatively charged phospholipids in normal plasma; details: 0.5-50 μM; control clotting time 40 seconds
Protocol: The ability of NST300 compounds to inhibit coagulaton catalyzed by negatively—charged phospholipids was evaluated in a standard coagulation test of the Russell viper venom (RVV) assay. The RVV reagent directly activates factor x present in the plasma, thus promoting prothrombinase complex formation. This reagent is widely used as a standard phospholipid responsive clotting test. (Thiagarajan et al., Blood, 1986; 869-874).
The RVV reagent kit, containing RVV and negatively charged phospholipids, from Gradipore, Australia was used. The reactions were started by mixing 100 μl of RVV reagent, and 100 μl of quality control plasma collected from normal individuals (commercially available from Instrumentation Laboratory, Italy). Clotting time was determined as the time-point beyond which the continuously mixed reaction ingredients in the test tube, could no longer be aspirated with a pasteur pipette. Clotting time was measured independently by two separate researchers.

[3] = tested on: thrombin generation on apoptotic HeLa cells
Protocol: One of the final steps of both intrinsic and extrinsic pathways of coagulation, is the generation of thrombin from prothrombin. Thrombin is the final protease generated in the sequence of coagulation reaction, and its activity entails conversion of fibrinogen to fibrin, that forms the clot. Generation of thrombin on the pro-coagulant surface of apoptotic cells was assayed (according to Bombeli T. et al., 1997, Blood 89(7), 2429-2442), by determining its activity, using the chromogenic substrate S-2366 (from Chromogenix, Sweden). Samples of pro-coagulant cells (HeLa cells treated with 500 μM of DA for 18 hours) were used for the assay.

BeWo cells = tested on: BeWo cells
Protocol: (§1) Anti β2GPI antibodies are present in sera of APS patients. […] For cell-ELISA tests, HUVEC cells or BeWo cells (both at 40,000/well), were plated on 96 well tissue culture plates (Nunc) in 200 ul of the culture medium, and allowed to grow for 18-22 hours. Following 2 washes with Hepes buffer (10 mM Hepes pH, 8, 140 mM NaCl) and 5 min incubation with the culture medium, the wells were incubated for 3 hr with 10% of normal plasma in PBS (as a source of β2GPI protein), supplemented with 1/500 of goat anti-human Apolipoprotein-H (β2GPI) (Affinity Biologicals, Pa.) Parallel control wells were incubated with 10% of normal plasma from Ilex. Serial dilutions of NST compounds were prepared in plasma/PBS. Washes and development were as described for anti CL ELISA.

HUVEC cells = tested on: HUVEC cells
Protocol: as §1

With “Myristate-KKKKKRFSFKKSFKLSGFSFKKNKKK (SEQUENCE ID NO. 2)-(biotin) [NST302]” as the substance, how does the “cells FITC positive” value [1] read?
The value was “About 70%”.

And the “increase of clotting time by a factor as compared to control” value [2]?
The value was 3.1.

What about the “delay factor of time needed to achieve 50% of thrombin activity” value ([3]; 25 μM) of the same substance?
The value was 2.25.

And the “time needed to achieve 50% of thrombin activity” value ([3]; 25 μM)?
The value was 4.5 min.

What about the “rate of thrombin activity and lag time for activating the reaction” value ([3]; 5-25 μM) of the same substance?
Its value is “delayed”.

What about the “concentration at which inhibition of thrombin generation is observed already” value ([3]; 5-25 μM tested) of the same substance?
Its value is 5 µM.

What about the “concentration of maximum effect of displacement of anti β2GPI” value (BeWo cells) of the same substance?
Its value is 50 µM.

What about the “blocking of binding to pro-coagulant surface of cells” value (BeWo cells; FIG. 6e) of the same substance?
The value was “dramatic and significant ability to block binding”.

And the “concentration of maximum effect of displacement of anti β2GPI” value (HUVEC cells)?
Its value is 50 µM.

And the “blocking of binding to pro-coagulant surface of cells” value (HUVEC cells; FIG. 6d)?
The value was “dramatic and significant ability to block binding”.
